Active and inactive are the calls of the source.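 How the source made its calls: active means maximal inhibition of USP17 at or above 30% in the confirmation dose-response, a value not among the printed readouts; inactive means the rest.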

The target of the test is Ubiquitin carboxyl-terminal hydrolase 17-like protein 5 (Homo sapiens) (UniProt A8MUK1). As to the kind of experiment: ubiquitin-specific protease 17 DUB inhibitors, concentration-effect assay, cell-free, verification of initial screening actives (AID 1645864). Particulars: purified USP17, ubiquitin-rhodamine cleavage fluorescence, 3 h.
Sequence of Ubiquitin carboxyl-terminal hydrolase 17-like protein 5 (Homo sapiens) (A8MUK1 whole entry, looked up): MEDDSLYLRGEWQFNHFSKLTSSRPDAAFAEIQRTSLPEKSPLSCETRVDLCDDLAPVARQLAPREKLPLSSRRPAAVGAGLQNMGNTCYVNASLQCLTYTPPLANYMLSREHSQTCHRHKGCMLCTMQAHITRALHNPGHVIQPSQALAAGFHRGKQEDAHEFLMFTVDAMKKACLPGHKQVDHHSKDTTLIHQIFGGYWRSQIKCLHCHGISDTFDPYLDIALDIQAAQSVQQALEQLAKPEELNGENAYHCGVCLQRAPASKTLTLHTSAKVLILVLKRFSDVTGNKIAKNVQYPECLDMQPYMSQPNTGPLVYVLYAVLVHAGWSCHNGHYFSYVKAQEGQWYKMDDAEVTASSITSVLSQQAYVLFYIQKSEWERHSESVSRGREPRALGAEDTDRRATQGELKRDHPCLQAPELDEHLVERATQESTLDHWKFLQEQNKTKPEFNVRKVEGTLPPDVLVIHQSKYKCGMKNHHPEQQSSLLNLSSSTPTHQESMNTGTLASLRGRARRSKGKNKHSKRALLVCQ
For the compound `CCc1ccc(-n2c(=O)c3ccccc3n(CC(=O)NCCC3=CCCCC3)c2=O)cc1`, the IC50 was 17.9 µM.
In the case of `Cn1cccc1C(=O)N1CCCC2(C1)Nc1cccnc1NC2=NC1CCCC1` (stereo unspecified), the IC50 was > 50 µM (inactive).
Consider `O=C1C(O)=C(c2ccc(O)cc2)C(=O)C(O)=C1c1ccccc1`, for which the IC50 was 6.1 µM.
Consider `Cc1ccccc1NC(=O)c1nc(-c2cn(Cc3ccc(F)cc3)nn2)no1`, for which the IC50 is 8.42 µM.
The figure for `CCOc1ccc2[nH]c3c(=O)n(CCc4ccc(OC)cc4)cnc3c2c1` is 4.41 µM; for `COc1ccc(CCNc2c(-c3ccccc3O)nc3cnccn23)cc1OC` it is > 50 µM (inactive).
Take `CCCC(=O)c1c[nH]c(C(=O)NCc2ccc(F)cc2)c1`: the IC50 is 14.5 µM.
With `Cn1c(CCN2CCCC2)nc2cc(NC(=O)c3ccccc3)ccc21`, the IC50 was > 50 µM (inactive).
The figure for `Cc1ccc(-n2c(=O)[nH]c3c(C(N)=O)nc(-c4cccnc4)nc32)cc1` is 4.36 µM.
`COc1ccc2nc(NC(=O)C(CC(C)C)NS(=O)(=O)c3ccc4c(c3)CCN4C(C)=O)sc2c1` (stereo unspecified): the half-inhibitory concentration (IC50) is 29.2 µM.
As for `CCn1ccc2c(cc(C(=O)Nc3cccc(OC)c3)n2C)c1=O`, the IC50 was > 50 µM (inactive).
`Cc1ccccc1NC(=O)c1cc(S(=O)(=O)N2CCCCCC2)ccc1Cl`: the IC50 was 35.2 µM.
With `COc1ccc(-c2nc(SCC(=O)Nc3ccc(C(C)=O)cc3)n[nH]2)cc1`, the IC50 is 10.8 µM.
The figure for `O=C(Nc1ccccc1Sc1ncc(-c2ccc(Cl)cc2)cn1)c1ccco1` is 5.78 µM; for `COc1ccc(CC(NC(C)=O)C(=O)NC2CCN(c3c(Cc4ccccc4)c(C)nc4ncnn34)CC2)cc1OC` (stereo unspecified) it is > 50 µM (inactive).
Under `COc1cc(COc2ccc3c(C)c(CC(=O)N4CC[C@@]5(O)CCCC[C@H]5C4)c(=O)oc3c2C)cc(OC)c1OC` stands 38.9 µM; under `COc1cc2c(cc1OC)-c1cc(Nc3ccc(Br)cc3)nc(=O)n1CC2`, 1.65 µM.
Take `FC(F)(F)c1cccc(Nc2nnc(-c3cccnc3)s2)c1`: the IC50 is 5.64 µM.
For `Cc1cc(NC(=O)c2[nH]nc3c2CCc2ccccc2-3)no1`, the IC50 was 3.28 µM.
The figure for `O=C(Cn1cncc(-c2nc(-c3ccccc3)cs2)c1=O)NC1CCCC1` is 39.5 µM; for `C/C=C\C1=CC(=O)[C@]23C[C@H]2[C@]2(C)CO[C@@]1(O)[C@@]3(O)O2` it is > 50 µM (inactive); for `Cc1ccc(Cn2nnc(-c3ccccc3Cl)n2)cc1` it is > 50 µM (inactive).
In the case of `O=c1ccc(-c2noc(-c3ccc4cc[nH]c4c3)n2)c[nH]1`, the IC50 is > 50 µM (inactive).
For the compound `Cc1noc(-c2cccc(=O)n2CC(=O)Nc2ccc(C)c(C)c2)n1`, the IC50 was 20.5 µM.
For the compound `Cc1cc(N2CCN(c3ncccn3)CC2)nc2ccc(NC(=O)c3ccncc3)cc12`, the IC50 was 2.99 µM.
Under `O=C1Nc2c(Cl)cc(Cl)cc2C1(O)c1sc(NC2CCCCC2)nc1-c1ccccc1` (stereo unspecified) stands 30.9 µM.
The figure for `CCOc1ccccc1-c1nc(-c2nnn(Cc3ccccc3)c2C)no1` is > 50 µM (inactive).
For `COCCCNC(=O)c1ccc(Cn2c(=O)c3ccccc3n(CC(=O)Nc3ccc(OC)cc3)c2=O)cc1`, the IC50 was 29.7 µM.
As to `O=C(COc1cccc(-n2cnnn2)c1)Nc1ccc2c(c1)OCCO2`, the IC50 was > 50 µM (inactive).
Take `CCOc1ccc(CCNC(=O)c2cccc3c2C(=O)N(CCOC)C3)cc1OCC`: the IC50 was > 50 µM (inactive).
Take `O=C1COc2ccc(NC(=O)c3cnn(Cc4ccccc4)c3)cc2N1`: the IC50 was 39.4 µM.
Under `Cc1ccc2nc(N3CCc4ccccc4C3)c3nncn3c2c1` stands > 50 µM (inactive).
The figure for `Cc1c(C)n(-c2ccc(Br)cn2)c2ncnc(NCCCO)c12` is 49.9 µM; for `Cc1ccc(C2c3c(-c4ccccc4O)n[nH]c3C(=O)N2Cc2ccco2)cc1` (stereo unspecified) it is 28.1 µM.
The figure for `N#Cc1ccccc1Cn1c(=O)n(Cc2ccco2)c(=O)c2ccccc21` is 36.6 µM.
As for `Cc1cc(C)cc(NC(=O)CSc2ccc(-c3ccncc3)nn2)c1`, the IC50 is > 50 µM (inactive).
The figure for `O=C(Nc1cccc(F)c1)C1CCCN(S(=O)(=O)N2CCCCCC2)C1` (stereo unspecified) is 39.9 µM; for `O=C(/C=C/c1ccco1)c1cccc([N+](=O)[O-])c1` it is 22.6 µM; for `COc1ccc(C(=O)Nc2cc3c4c(c2)C(C)C(=O)N4CCC3)cc1` (stereo unspecified) it is > 50 µM (inactive).
The figure for `CC(=O)Nc1ccc(S(=O)(=O)NCc2ccc(C(=O)NCc3ccc(C)cc3)cc2)cc1` is 27.9 µM; for `FC(F)(F)c1cccc(N2CCN(c3nc4ccccc4n4nnnc34)CC2)c1` it is > 50 µM (inactive); for `O=C(Nc1cccc(-c2noc(C3CCC3)n2)c1)C1CC(=O)N(c2ccccc2)C1` (stereo unspecified) it is 14.1 µM.
Turning to `Cc1cc(-c2ccnc3c(C#N)cnn23)c(C)s1`, the IC50 was 28.6 µM.
As for `Cc1cc(O)c(Oc2cc(C)cc(O)c2O)c(O)c1`, the IC50 is 26.6 µM.
Under `O=C(NC1CCCC1)c1cccc(-c2ccc(N3CCCC3)nc2)c1` stands 4.53 µM.
Under `Cc1ccnc(NC(=O)c2ccn(COc3ccc(Cl)cc3)n2)c1` stands 24.2 µM; under `CC(=O)c1sc(NC(=O)/C=C/c2ccccc2)nc1-c1ccccc1`, 13.7 µM; under `O=S(=O)(Nc1ccc(O)cc1)c1ccc2oc3ccc(S(=O)(=O)Nc4ccc(O)cc4)cc3c2c1`, 43.6 µM.
In the case of `COC(=O)c1ccccc1NC(=O)CSc1nnc(CNc2ccc(F)cc2)n1CC1CCCO1` (stereo unspecified), the IC50 was > 50 µM (inactive).
Under `COc1cccc(NC(=O)c2ccc(F)cc2Cl)c1` stands > 50 µM (inactive); under `COc1cc(C)c2c(=O)c3c(oc2c1)C(=O)c1c(O)c(OC)cc(O)c1C3=O`, 0.609 µM; under `CCCC(=O)Nc1ccc(SCc2nnc(-c3ccccc3)o2)cc1`, > 50 µM (inactive).
Under `COc1cccc(NC(=O)C2Cc3ccccc3N2C(=O)c2ccccc2)c1` (stereo unspecified) stands 27.7 µM.
As to `Nc1ccccc1SC(CC(=O)c1ccc(Cl)cc1)c1ccsc1` (stereo unspecified), the IC50 was > 50 µM (inactive).
Turning to `N#Cc1cc2c(nc1SCC(=O)NCc1ccccc1)CCCC2`, the IC50 was > 50 µM (inactive).
In the case of `COc1ccc(OC)c(NC(=O)c2ccc(-n3nnnc3SC)cc2)c1`, the IC50 was 29.9 µM.
As for `Cc1sc2ccn(C)c(=O)c2c1C(=O)NC1CCCC1`, the concentration for half-maximal inhibition (IC50) is 3.48 µM.
In the case of `COc1ccc(NC(=O)c2nc3n(n2)-c2ccccc2S(=O)(=O)N3)cn1`, the IC50 is > 50 µM (inactive).
The figure for `CC(=O)Nc1ccc(NC(=O)c2cc(-c3cc(C)cc(C)c3O)n[nH]2)cc1` is 16.3 µM; for `CC1CC[C@]2(NC1)O[C@H]1C[C@H]3[C@@H]4CC[C@H]5C[C@@H](O[C@@H]6O[C@H](CO)[C@H](O[C@@H]7O[C@H](CO)[C@@H](O)[C@H](O[C@@H]8OC[C@@H](O)[C@H](O)[C@H]8O)[C@H]7O[C@@H]7O[C@H](CO)[C@@H](O)[C@H](O)[C@H]7O)[C@H](O)[C@H]6O)CC[C@]5(C)[C@H]4CC[C@]3(C)[C@H]1[C@@H]2C` (stereo partly specified) it is 40 µM; for `CC1=C(C(=O)Nc2ccccc2C)C(c2ccc(OCc3ccccc3F)cc2)n2ncnc2N1` (stereo unspecified) it is 34.3 µM.
Under `COC1=C(C2=C(OC)C(=O)c3cc4c(c(O)c3C2=O)C(=O)OC(C)C4)C(=O)c2c(cc3c(c2O)C(=O)OC(C)C3)C1=O` (stereo unspecified) stands 0.0977 µM; under `COc1ccccc1OCCNC(=O)c1cc(C2CC2)nc2c1cnn2C(C)C`, > 50 µM (inactive); under `COc1cc(Cl)ccc1C(=O)Nc1cccc(-n2cnnn2)c1C`, 4.48 µM.
Under `O=C1NC(=O)/C(=C/c2ccc(OC(=O)c3ccc(Cl)cc3Cl)cc2)N1` stands 13.7 µM; under `COc1cc([C@@H]2c3cc4c(cc3C[C@@H]3COC(=O)[C@H]32)OCO4)cc(OC)c1OC`, 17.3 µM.
As for `Cc1ccc(OC(=O)c2cn(-c3ccccc3)nc2-c2cccnc2)cc1`, the IC50 is > 50 µM (inactive).
The figure for `COc1ccc(N2C(=O)[C@@H]3[C@H]4c5ccccc5C=CN4C(C(=O)Nc4ccc5c(c4)OCO5)[C@@H]3C2=O)cc1` (stereo partly specified) is > 50 µM (inactive); for `O=C(Nc1cccn(Cc2c(Cl)cccc2Cl)c1=O)c1ccccc1[N+](=O)[O-]` it is 37 µM.
`CC[C@H](C)C[C@H]1CC[C@](O)([C@](C)(O)C(=O)N[C@@H]2C(=O)N3NCCC[C@@H]3C(=O)N(O)[C@@H](C)C(=O)NCC(=O)N3NCCC[C@H]3C(=O)N(O)[C@H](C)C(=O)O[C@H]2C(C)C)O[C@@H]1C`: the IC50 is 13.6 µM.
The figure for `CC(C(=O)NCc1ccc2c(c1)OCO2)N1CCN(c2ccc(O)cc2)CC1` (stereo unspecified) is 30.1 µM.
For `COC(=O)C1C(c2ccc(Cl)cc2Cl)C2(C(=O)c3ccccc3C2=O)C2C=Cc3ccccc3N12` (stereo unspecified), the IC50 is > 50 µM (inactive).
Take `CCOC(=O)CSc1nnc(-c2cnn(-c3ccccc3)c2N)o1`: the IC50 is 20.5 µM.
For the compound `CN(C)c1ccc(CCN2CCc3nc4cccnc4cc3C2)cc1`, the IC50 was > 50 µM (inactive).
`CNC(=O)C1CN(C(=O)c2ccc(OC)cc2)CC12CCCC2` (stereo unspecified): the IC50 was > 50 µM (inactive).
Under `COc1ccc(CNC(=O)c2[nH]nc3c2CCc2ccccc2-3)cc1` stands 35.5 µM; under `N#Cc1cccc(NC(=O)Nc2cccn(Cc3ccccc3F)c2=O)c1`, 21 µM; under `c1ccc(-c2ccc(NCc3ccc4c(c3)OCO4)nn2)cc1`, 7.45 µM.
As to `CCN(C(=O)c1cc2c(s1)-c1ccccc1OC2)c1ccccc1F`, the IC50 is > 50 µM (inactive).
Take `COc1cccc(-c2cc(=O)[nH]c(Nc3nc(C)c4ccccc4n3)n2)c1`: the IC50 is 43.1 µM.
Under `Cc1ccc(NC(=O)c2cnc(N3CCOCC3)nc2)cc1F` stands 28.6 µM; under `Cc1c2c(nc3ccccc13)-c1ccccc1CC2`, > 50 µM (inactive); under `COc1ccc(NC(=O)c2nnn(-c3ccccc3F)c2C)cc1OC`, > 50 µM (inactive).
The figure for `CC(C)(C)C(=O)Nc1ccc(C(=O)Nc2cccc(-c3nnc(-c4ccccc4)o3)c2)cc1` is 5.27 µM; for `Cc1ccc2c(c1)[C@]1(C(=O)N2)[C@@H]2C(=O)N(c3cccc(C(F)(F)F)c3)C(=O)[C@@H]2C2CCCN21` (stereo partly specified) it is > 50 µM (inactive); for `Cn1c(COc2ccccc2)nnc1SCC(=O)Nc1ccc(N2CCOCC2)cc1` it is 23.9 µM.

A word on the IC50: it is the concentration at which inhibition is half-maximal.

For the origin of these results see PubChem BioAssay AID1645864 (Buhrlage Lab, Dana-Farber Cancer Institute and Novartis …, 2021).
